# Experimental data as given in US20240285615A1, “MEDICAMENTS COMPRISING GLYCOSIDASE INHIBITORS” (priority 2021, published 2024).
# Where two headings read alike, the source gives them in different places.
# Assays:
# [1] = system: patients with probable PSP Richardson's syndrome; experiment: Phase 2 clinical trial, dose extension (Example 7); format: in vivo, human; settings: 300 mg, 150 mg or 75 mg TID PO
# Procedure: The study design of this Example 7 is analogous to the study described in Example 6, a randomized, multi-centre, double-blind, placebo-controlled trial to study the safety and tolerability of compound (I) in patients with probable PSP Richardson's syndrome. Approximately 40 patients (40 to 85 years of age, inclusive) are randomized in a 2:1:1:1 ratio to 300 mg or 150 mg or 75 mg or placebo TID PO, with or without food.
# [2] = system: adults with PSP; experiment: Randomized, double-blind, placebo-controlled Phase 2 trial in PSP (Example 8); format: in vivo, human; settings: 75 mg, 150 mg or 300 mg TID PO, 72-week treatment
# [3] = system: acute glaucoma-induced I/R injury; experiment: In vivo treatment efficacy on acute glaucoma induced ischemia-reperfusion (I/R) model; design: species or system Sprague-Dawley (SD) rats; settings: SD rats, oral, 7 days after I/R injury
# Procedure: The efficacy of compound of formula (I) is evaluated in the acute glaucoma animal model. Eight-week-old male Sprague-Dawley (SD) rats weighing 250 to 300 g are housed in a temperature- and humidity-controlled animal room under a 12-hour light/12-hour dark cycle, with food and water provided ad libitum. Before any experiment, animals are allowed for one week of acclimatization. The SD rats are randomly allocated to control group and/or treatment groups. Compound of formula (I) is administrated by oral (gavage) route. Two protocols are considered, where the treatment is initiated 24 hours before or 1 hour after the induction of acute glaucoma-induced I/R injury.
# To induce I/R injury, a general anesthesia is induced via i.p. injection of a mixture of 50 mg/kg of ketamine and 2 mg/kg of xylazine. Corneal analgesia is administered using a drop of topical 0.5% proparacaine hydrochloride ophthalmic solution, and pupillary dilatation is maintained with 0.5% tropicamide and 0.5% phenylephrine. After analgesia and dilation of the pupil, the anterior chamber of the left eye is cannulated with a 30-gauge needle connected to a saline reservoir at 150 cm above the eye, leading to a high intraocular pressure (IOP) of 110 mm Hg. The presence of retinal ischemia is examined by the fundus. The cannulation is lasting 60 minutes. After removing the infusion needle from the anterior chamber, the IOP returns to normal. Antibiotic ophthalmic gel with tobramycin is topically applied to the eye before and after the procedure. The rats are sacrificed 7 days after I/R injury to observe the long-term effect of the compound of formula (I) treatment. After collection, the thickness of the retinas is examined by histological staining (Mayer P, (1896), Mitt. zool. Stn. Neapel., 12, 303). The number of retinal ganglion cells is also quantified by immunohistochemistry. Finally, the function of the retina is also evaluated 7 days after I/R injury by electroretinography (ERG).
# [4] = Phase 1 Part 2: multiple BID doses for 12 days, plasma pharmacokinetics; format: in vivo, human; settings: for AR (accumulation ratio, AUC0-tau at Day 12/AUC0-tau at Day 1) / concentration at 12 day / Cmax / Tmax / half-life / AUC: plasma; for concentration at 12 day / Cmax / Tmax / half-life / AUC: both sexes, human; for concentration at 12 day: in vivo, read-out: Cmin; for Cmax / Tmax / half-life / AUC: oral; for Tmax: median (min, max); for AUC: read-out: AUC0-tau
# Procedure: The study was a single-centre, randomized, placebo-controlled single- and multiple ascending dose study in healthy male and female (no childbearing potential) volunteers aged 18-80 years. Study objectives were safety, tolerability, food effect and pharmacokinetics. Following identification of safe and tolerable single doses in healthy male subjects aged 18-55 years, separate cohorts were dosed to assess food effect. Furthermore, multiple-dose safety, tolerability, pharmacokinetics, CSF drug levels and pharmacodynamics were assessed in elderly (age 55-80 years) male or healthy non-child-bearing potential female volunteers.
# Day 1: Twice a day (BID) dosing. Day 2: No dosing. Day 3-11: 9 days of BID dosing. Day 12: one dose in the morning.
# [5] = Summary statistics of steady-state metrics by mathematical modeling of pharmacokinetic data; design: species or system human
# Source text: The following summary statistics of steady-state metrics have been determined based on the above experimental results (“Mathematical Modeling of Pharmacokinetic Data”, D. W. A. Bourne, Routledge, 2018): […]
# [6] = 100 mg BID, Day 12, elderly subjects, arithmetic mean
# [7] = 250 mg BID, Day 12, elderly subjects, arithmetic mean
# [8] = 500 mg BID, Day 12, elderly subjects, arithmetic mean
compound,measurement,setting,value
CC(=O)Nc1nnc(N2CCN([C@@H](C)c3ccc4c(c3)OCO4)CC2)s1 [Compound (I)],"efficacy, safety and tolerability of the preferred dosage regimen",[1],"especially effective, safe and well tolerated"
same,"efficacy, safety and tolerability of the preferred dosage regimen",[2],"especially effective, safe and well tolerated"
same,number of retinal ganglion cells by immunohistochemistry,[3],increase number of retinal ganglion cells
same,retinal function by electroretinography,[3],improving retinal function
same,thickness of the retina by H&E staining,[3],mitigating the reduction of thickness of the retina
same,"AR (accumulation ratio, AUC0-tau at Day 12/AUC0-tau at Day 1)",[4]; [6],1.35
same,"AR (accumulation ratio, AUC0-tau at Day 12/AUC0-tau at Day 1)",[4]; [7],1.36
same,"AR (accumulation ratio, AUC0-tau at Day 12/AUC0-tau at Day 1)",[4]; [8],1.25
same,"dose proportionality of Cmax, AUC0-tau and AUC12-24","[4]; Day 1, BID 100 mg to BID 500 mg",Dose proportionality was observed
same,"dose proportionality of Cmax, AUC0-tau and AUC0-48","[4]; Day 12, BID 100 mg to BID 500 mg",Dose proportionality was observed
same,concentration at 12 day,[4]; [6],84 ng/mL
same,concentration at 12 day,[4]; [7],308 ng/mL
same,concentration at 12 day,[4]; [8],743 ng/mL
same,Cmax,"[4]; 100 mg, 100 mg BID, Day 1 (first dose), elderly subjects, arithmetic mean",1450 ng/mL
same,Tmax,"[4]; 100 mg, 100 mg BID, Day 1 (first dose), elderly subjects",0.75 h
same,half-life,"[4]; 100 mg, 100 mg BID, Day 1, elderly subjects, arithmetic mean, read-out: t1/2 (converted)",3.9 h
same,AUC,"[4]; 100 mg, 100 mg BID, Day 1, tau 12 h, elderly subjects, arithmetic mean",4120 ng·h/mL
same,Cmax,"[4]; 100 mg, 100 mg BID, Day 12, elderly subjects, arithmetic mean",1340 ng/mL
same,half-life,"[4]; 100 mg, 100 mg BID, Day 12, elderly subjects, arithmetic mean, read-out: t1/2 (converted)",7.84 h
same,Tmax,"[4]; 100 mg, 100 mg BID, Day 12, elderly subjects",2.25 h
same,AUC,"[4]; 100 mg, 100 mg BID, Day 12, tau 12 h, elderly subjects, arithmetic mean",5440 ng·h/mL
same,Cmax,"[4]; 250 mg, 250 mg BID, Day 1 (first dose), elderly subjects, arithmetic mean",3630 ng/mL
same,Tmax,"[4]; 250 mg, 250 mg BID, Day 1 (first dose), elderly subjects",0.5 h
same,half-life,"[4]; 250 mg, 250 mg BID, Day 1, elderly subjects, arithmetic mean, read-out: t1/2 (converted)",4.74 h
same,AUC,"[4]; 250 mg, 250 mg BID, Day 1, tau 12 h, elderly subjects, arithmetic mean",10700 ng·h/mL
same,Cmax,"[4]; 250 mg, 250 mg BID, Day 12, elderly subjects, arithmetic mean",3740 ng/mL
same,half-life,"[4]; 250 mg, 250 mg BID, Day 12, elderly subjects, arithmetic mean, read-out: t1/2 (converted)",10.2 h
same,Tmax,"[4]; 250 mg, 250 mg BID, Day 12, elderly subjects",1 h
same,AUC,"[4]; 250 mg, 250 mg BID, Day 12, tau 12 h, elderly subjects, arithmetic mean",14300 ng·h/mL
same,Cmax,"[4]; 500 mg, 500 mg BID, Day 1 (first dose), elderly subjects, arithmetic mean",6440 ng/mL
same,Tmax,"[4]; 500 mg, 500 mg BID, Day 1 (first dose), elderly subjects",1.02 h
same,half-life,"[4]; 500 mg, 500 mg BID, Day 1, elderly subjects, N=1, read-out: t1/2 (converted)",6.19 h
same,AUC,"[4]; 500 mg, 500 mg BID, Day 1, tau 12 h, elderly subjects, arithmetic mean",24300 ng·h/mL
same,Cmax,"[4]; 500 mg, 500 mg BID, Day 12, elderly subjects, arithmetic mean",6670 ng/mL
same,half-life,"[4]; 500 mg, 500 mg BID, Day 12, elderly subjects, arithmetic mean, read-out: t1/2 (converted)",10.7 h
same,Tmax,"[4]; 500 mg, 500 mg BID, Day 12, elderly subjects",1.5 h
same,AUC,"[4]; 500 mg, 500 mg BID, Day 12, tau 12 h, elderly subjects, arithmetic mean",30200 ng·h/mL
same,half-life,"[4]; 100 to 500 mg BID, single dose and multiple dose conditions, read-out: terminal half-life (t½), range of means",3.9 to 10.7 h
same,AUC mean,[5]; BID 125 mg,12589 ng·h/mL
same,AUC median,[5]; BID 125 mg,12388 ng·h/mL
same,Cavg mean,[5]; BID 125 mg,521 ng/mL
same,Cavg median,[5]; BID 125 mg,358 ng/mL
same,Cmax mean,[5]; BID 125 mg,1508 ng/mL
same,Cmax median,[5]; BID 125 mg,1510 ng/mL
same,Cmin mean,[5]; BID 125 mg,139 ng/mL
same,Cmin median,[5]; BID 125 mg,130 ng/mL
same,AUC mean,[5]; BID 250 mg,25763 ng·h/mL
same,AUC median,[5]; BID 250 mg,25044 ng·h/mL
same,Cavg mean,[5]; BID 250 mg,1041 ng/mL
same,Cavg median,[5]; BID 250 mg,720 ng/mL
same,Cmax mean,[5]; BID 250 mg,3027 ng/mL
same,Cmax median,[5]; BID 250 mg,3019 ng/mL
same,Cmin mean,[5]; BID 250 mg,307 ng/mL
same,Cmin median,[5]; BID 250 mg,276 ng/mL
same,AUC mean,[5]; BID 500 mg,52673 ng·h/mL
same,AUC median,[5]; BID 500 mg,52166 ng·h/mL
same,Cavg mean,[5]; BID 500 mg,2178 ng/mL
same,Cavg median,[5]; BID 500 mg,1531 ng/mL
same,Cmax mean,[5]; BID 500 mg,6126 ng/mL
same,Cmax median,[5]; BID 500 mg,6133 ng/mL
same,Cmin mean,[5]; BID 500 mg,654 ng/mL
same,Cmin median,[5]; BID 500 mg,617 ng/mL
same,AUC mean,[5]; TID 75 mg,11072 ng·h/mL
same,AUC median,[5]; TID 75 mg,10887 ng·h/mL
same,Cavg mean,[5]; TID 75 mg,456 ng/mL
same,Cavg median,[5]; TID 75 mg,392 ng/mL
same,Cmax mean,[5]; TID 75 mg,1058 ng/mL
same,Cmax median,[5]; TID 75 mg,1053 ng/mL
same,Cmin mean,[5]; TID 75 mg,109 ng/mL
same,Cmin median,[5]; TID 75 mg,101 ng/mL
same,AUC mean,[5]; TID 150 mg,23204 ng·h/mL
same,AUC median,[5]; TID 150 mg,22835 ng·h/mL
same,Cavg mean,[5]; TID 150 mg,951 ng/mL
same,Cavg median,[5]; TID 150 mg,827 ng/mL
same,Cmax mean,[5]; TID 150 mg,2162 ng/mL
same,Cmax median,[5]; TID 150 mg,2143 ng/mL
same,Cmin mean,[5]; TID 150 mg,257 ng/mL
same,Cmin median,[5]; TID 150 mg,240 ng/mL
same,AUC mean,[5]; TID 300 mg,46780 ng·h/mL
same,AUC median,[5]; TID 300 mg,45869 ng·h/mL
same,Cavg mean,[5]; TID 300 mg,1909 ng/mL
same,Cavg median,[5]; TID 300 mg,1660 ng/mL
same,Cmax mean,[5]; TID 300 mg,4348 ng/mL
same,Cmax median,[5]; TID 300 mg,4298 ng/mL
same,Cmin mean,[5]; TID 300 mg,533 ng/mL
same,Cmin median,[5]; TID 300 mg,499 ng/mL
